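Following 48 hours of exposure in 96-well plates, responses at five concentrations were used to interpolate endpoints linearly. GI50 is the concentration that inhibits growth by half.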 The source made the active and inactive calls. Cut-off read from the data, not from the text of the source: active = GI50 up to about 1.1 µM and inactive = higher.
Columns and labels:
Assay in all cases: NCI tumour cell line growth inhibition, 48 h
[1] = test system: NCI-H460
[2] = test system: HCT-15
[3] = test system: MDA-N
[4] = test system: OVCAR-5
[5] = test system: SK-MEL-2
[6] = test system: HCT-116
[7] = test system: MCF7
[8] = test system: NCI/ADR-RES
[9] = test system: NCI-H23
[10] = test system: LOX IMVI
[11] = test system: SK-OV-3
[12] = test system: COLO 205
[13] = test system: SF-268
[14] = test system: CCRF-CEM
[15] = test system: RPMI-8226
[16] = test system: CAKI-1
[17] = test system: NCI-H226
[18] = test system: OVCAR-8
[19] = test system: SW-620
[20] = test system: SK-MEL-5

Structure (SMILES) | GI50 [1] | GI50 [2] | GI50 [3] | GI50 [4] | GI50 [5] | GI50 [6] | GI50 [7] | GI50 [8] | GI50 [9] | GI50 [10] | GI50 [11] | GI50 [12] | GI50 [13] | GI50 [14] | GI50 [15] | GI50 [16] | GI50 [17] | GI50 [18] | GI50 [19] | GI50 [20]
O=C1c2cccc([N+](=O)[O-])c2C(=O)N1c1ncn[nH]1 | > 100 µM (inactive) | > 100 µM | > 100 µM (inactive) | > 100 µM (inactive) | 41.2 µM (inactive) | > 100 µM (inactive) | > 100 µM (inactive) | > 100 µM (inactive) | > 100 µM (inactive) | > 100 µM (inactive) | 32.7 µM (inactive) | > 100 µM (inactive) | 37 µM (inactive) | > 100 µM (inactive) | > 100 µM (inactive) | > 100 µM (inactive) | 81.8 µM (inactive) | 79.3 µM (inactive) | > 100 µM (inactive) | > 100 µM (inactive)
N=C(N)N/N=C/c1c(-c2ccc([N+](=O)[O-])cc2)nc2sc(Cl)cn12 | 1.73 µM (inactive) | 0.312 µM | 0.54 µM (active) | 1.21 µM (inactive) | 0.513 µM (active) | 0.223 µM (active) | 0.52 µM (active) | 1.46 µM (inactive) | 0.841 µM (active) | 0.871 µM (active) | 1.8 µM (inactive) | 0.658 µM (active) | 1.42 µM (inactive) | 0.277 µM (active) | 1.32 µM (inactive) | 1.67 µM (inactive) | 1.76 µM (inactive) | 0.479 µM (active) | 0.226 µM (active) | 0.891 µM (active)
O=C(CN1CCOCC1)c1ccc2c(c1)oc(=O)n2CCN1CCCC1 | > 100 µM (inactive) | > 100 µM | > 100 µM (inactive) | > 100 µM (inactive) | > 100 µM (inactive) | > 100 µM (inactive) | > 100 µM (inactive) | > 100 µM (inactive) | > 100 µM (inactive) | > 100 µM (inactive) | > 100 µM (inactive) | > 100 µM (inactive) | > 100 µM (inactive) | > 100 µM (inactive) | > 100 µM (inactive) | > 100 µM (inactive) | > 100 µM (inactive) | > 100 µM (inactive) | > 100 µM (inactive) | > 100 µM (inactive)
Cc1cc(S(=O)(=O)Nc2nnc3c4ccccc4cnn23)c(S)cc1Cl | 31.3 µM (inactive) | > 58.6 µM | > 100 µM (inactive) | > 100 µM (inactive) | 31.6 µM (inactive) | 58.2 µM (inactive) | > 67.3 µM (inactive) | > 64.7 µM (inactive) | 63 µM (inactive) | > 100 µM (inactive) | 34.7 µM (inactive) | > 100 µM (inactive) | 39.9 µM (inactive) | > 100 µM (inactive) | > 100 µM (inactive) | > 100 µM (inactive) | 24.1 µM (inactive) | > 100 µM (inactive) | > 100 µM (inactive) | > 81.5 µM (inactive)
CC1=NN(C(=O)c2ccncc2)C(=O)C1/N=N/c1ccc2ccccc2c1 (stereo not given) | 21.5 µM (inactive) | 7.41 µM | 2.94 µM (inactive) | > 60.7 µM (inactive) | 14.7 µM (inactive) | 32.7 µM (inactive) | 5.32 µM (inactive) | 13.7 µM (inactive) | > 64.3 µM (inactive) | 30.1 µM (inactive) | > 100 µM (inactive) | 18.7 µM (inactive) | 69 µM (inactive) | 64.6 µM (inactive) | > 50.6 µM (inactive) | > 100 µM (inactive) | > 100 µM (inactive) | > 100 µM (inactive) | 38.7 µM (inactive) | 19.2 µM (inactive)

Source: ChEMBL document CHEMBL1201862, “PubChem BioAssay data set” (2004)
